Earlier results in patent US20190275102A1, “STERILE INJECTABLE COMPOSITION COMPRISING CARFILZOMIB” (CADILA HEALTHCARE LIMITED, priority 2018, published 2019).

Row | Compound | single dose showing renal tolerance (kidney; animal trials, single-dose studies, i.v.) | dose with evidence of renal cellular toxicity (kidney; in vivo) [mg/kg/day] | renal function (kidney; in vivo) | solubility in acidic conditions (acidic conditions) | solubility in water (water)
1 | sulfobutylether beta-cyclodextrin | up to 2000 mg/kg | ≥ 160 | not impaired | – | –
2 | CC(C)C[C@H](NC(=O)[C@H](CCc1ccccc1)NC(=O)CN1CCOCC1)C(=O)N[C@@H](Cc1ccccc1)C(=O)N[C@@H](CC(C)C)C(=O)[C@@]1(C)CO1 [Carfilzomib, (2S)—N—((S)-1-((S)-4-methyl-1-((R)-2-methytoxiran2-yl)-1-oxopentan-2-ylcarbamoyl)-2-phenylethyl)-2-((S)-2-(2-morpholinoacetamido)-4-phenylbutanamido)-4-methylpentanamide] | – | – | – | very slightly soluble | practically insoluble
